Data as given in patent publication US20240270701A1, “BETA ADRENERGIC AGONIST AND METHODS OF USING THE SAME” (Curasen Therapeutics, Inc., priority 2021, published 2024).
Read-outs that look alike come from different tables or passages of the source.

How the values were obtained:
B1-AR = molecular target: T1, B1-AR (Homo sapiens, UniProt P08588); assay: cAMP Gs dynamic HTRF assay, cells expressing beta-adrenergic receptor (CHO-K1), B1-AR; format: cell-based; details: for EC50: cAMP HTRF, read-out: pEC50 [B1-AR] (converted); for Emax: relative to full agonist isoproterenol, read-out: Emax (% iso) (%) [B1-AR]
T1 construct: expressed in transfected cells; host or cells: CHO-K1
T1 sequence (P08588 whole entry, species assumed): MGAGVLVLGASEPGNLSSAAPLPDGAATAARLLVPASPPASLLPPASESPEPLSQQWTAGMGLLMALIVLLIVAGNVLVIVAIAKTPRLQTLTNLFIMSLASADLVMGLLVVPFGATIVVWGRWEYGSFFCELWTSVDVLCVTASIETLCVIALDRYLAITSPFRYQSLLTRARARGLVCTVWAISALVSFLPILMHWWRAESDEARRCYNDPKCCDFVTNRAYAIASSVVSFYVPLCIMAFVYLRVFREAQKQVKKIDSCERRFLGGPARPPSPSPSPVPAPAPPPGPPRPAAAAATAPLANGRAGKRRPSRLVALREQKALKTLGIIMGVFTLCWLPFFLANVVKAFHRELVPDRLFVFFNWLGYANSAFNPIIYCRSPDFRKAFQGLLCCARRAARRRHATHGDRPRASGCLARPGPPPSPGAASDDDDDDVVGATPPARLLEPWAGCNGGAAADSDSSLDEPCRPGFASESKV
Description: (§1) cAMP homogeneous time-resolved fluorescence (HTRF): experimental methods. Compound efficacy is determined using the cAMP Gs dynamic HTRF assay (Cisbio, catalog #62AM4PEC) largely following the manufacturer's instructions, also detailed below.
(§2) Standard serial dilution curves are 10-point, 5-fold dilutions starting from a highest concentration of 10 μM. Controls present on every assay plate are 0.1% DMSO (vehicle control), 1 μM isoproterenol (full beta-adrenergic agonist control) and […] xamoterol (partial beta-adrenergic agonist control). […] Assay plates are centrifuged at 500×g for 10 seconds. Compounds and IBMX are prepared at 2× final dose to compensate for addition of cells.
(§3) Cell preparation: 1× stimulation buffer, washing PBS (Dulbecco's phosphate-buffered saline, − Mg − Ca; Caisson Labs, catalog #PBL01), assay PBS (Dulbecco's phosphate-buffered saline, + Mg, + Ca; Caisson Labs, catalog #PBL02) and Versene (0.02% EDTA disodium salt solution in PBS without calcium or magnesium; Caisson Labs, catalog #EDL01) are pre-warmed to 37° C. Cells expressing beta-adrenergic receptor were washed in washing PBS to remove growth medium and then released from the surface by incubating with Versene for 5-10 minutes at 37° C. Cells are harvested using assay PBS, counted manually by hemocytometer or by an automated cell counter, pelleted by centrifugation (200×g, 5 minutes) and resuspended in 37° C. 1× stimulation buffer to a final density of 1.5×10^6 cells/mL. 5 μL of the suspended cell solution (7500 cell total) are added to all wells of the 384 well assay plate, the assay plate was covered with an Axygen® plate seal (Corning PCR-SP) and incubated in a humidified 37° C. environment supplemented with 5% CO2 for 30 minutes.
(§4) HTRF reagent addition, reading and data analysis: After 30 minutes of cell stimulation with test compound, the assay plates are centrifuged at 500×g for 10 seconds, and incubation was stopped with the addition of 5 μL cAMP-D2 acceptor, diluted 1:21 in detection and lysis buffer 2 (Cisbio 62CL2FDF) was added to all cells. Subsequently, 5 μL Anti-cAMP-Eu Donor, diluted 1:21 in detection and lysis buffer 2, was added to cells. Plates were sealed and reactions gently ‘vortexed’ at 900 rpm on a Heidolph Titramax 1000 for at least 30 minutes at room temperature. Plates are centrifuged again at 500×g for 10 seconds, and HTRF was measured using a Tecan Spark plate reader at 50 flashes per well. […] Potency estimates (EC50 and pEC50) are derived from the four-parameter nonlinear regression of the concentration-effect curve and an estimate of relative efficacy is determined by comparing the magnitude of the test compound HTRF signal window (min−max dose) with the signal window of the full agonist control, isoproterenol.

B2-AR = molecular target: T2, B2-AR (Homo sapiens, UniProt P07550); assay: cAMP Gs dynamic HTRF assay, cells expressing beta-adrenergic receptor (CHO-K1), B2-AR; format: cell-based; details: for EC50: cAMP HTRF, read-out: pEC50 [B2-AR] (converted); for Emax: relative to full agonist isoproterenol, read-out: Emax (% iso) (%) [B2-AR]
T2 construct: expressed in transfected cells; host or cells: CHO-K1
T2 sequence (P07550 whole entry, species assumed): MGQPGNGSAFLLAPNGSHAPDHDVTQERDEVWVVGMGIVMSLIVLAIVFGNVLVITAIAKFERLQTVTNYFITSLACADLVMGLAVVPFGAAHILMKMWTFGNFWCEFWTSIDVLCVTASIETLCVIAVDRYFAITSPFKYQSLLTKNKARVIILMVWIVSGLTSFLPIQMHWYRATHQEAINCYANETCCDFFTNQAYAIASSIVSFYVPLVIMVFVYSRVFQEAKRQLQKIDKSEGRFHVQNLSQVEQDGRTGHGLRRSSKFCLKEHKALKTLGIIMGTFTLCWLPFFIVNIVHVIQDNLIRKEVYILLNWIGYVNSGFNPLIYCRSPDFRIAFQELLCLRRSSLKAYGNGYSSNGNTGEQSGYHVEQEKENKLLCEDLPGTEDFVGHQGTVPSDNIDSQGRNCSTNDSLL
Description: as §1, §2, §3, §4

Structure (SMILES)	EC50 (B1-AR)	Emax (B1-AR)	EC50 (B2-AR; CHO-K1 cells)	Emax (B2-AR; CHO-K1 cells)	Emax (B2-AR; CHO-K1, CHO-K1 cells)
CC(C)C(C)(C)NC[C@H](O)c1ccc(F)c2[nH]ncc12 [I-22]	0.01 to 0.1 µM	> 90%	< 0.01 µM	> 90%	–
CCC(C)(CC)NC[C@H](O)c1cccc2[nH]ncc12 [I-23]	< 0.01 µM	> 90%	< 0.01 µM	> 90%	–
CC[C@H](C)NC[C@H](O)c1cccc2[nH]ncc12 [I-24]	0.01 to 0.1 µM	> 90%	< 0.01 µM	> 90%	–
CC(C)C(C)(C)NC[C@H](O)c1cccc2[nH]nc(F)c12 [I-25]	< 0.01 µM	> 90%	< 0.01 µM	> 90%	–
CCC(C)(CC)NC[C@H](O)c1cc(F)cc2[nH]ncc12 [I-26]	< 0.01 µM	> 90%	< 0.01 µM	–	> 90%
CC(C)[C@@H](C)NC[C@H](O)c1cc(F)cc2[nH]ncc12 [I-27]	< 0.01 µM	> 90%	< 0.01 µM	> 90%	–
CCC(C)(CC)NC[C@H](O)c1ccc(F)c2[nH]ncc12 [I-28]	< 0.01 µM	> 90%	< 0.01 µM	–	> 90%
CC(C)C(C)(C)NC[C@H](O)c1cccc2[nH]ncc12 [I-29]	0.01 to 0.1 µM	> 90%	< 0.01 µM	–	> 90%
CCC(C)(CC)NC[C@H](O)c1cccc2[nH]nc(F)c12 [I-30]	< 0.01 µM	> 90%	< 0.01 µM	> 90%	–
CC(C)[C@@H](C)NC[C@H](O)c1ccc(F)c2[nH]ncc12 [I-31]	0.01 to 0.1 µM	70 to 90%	< 0.01 µM	–	> 90%
CC(C)C(C)(C)NC[C@H](O)c1cc(F)cc2[nH]ncc12 [I-32]	0.01 to 0.1 µM	> 90%	< 0.01 µM	> 90%	–
CC(C)[C@@H](C)NC[C@H](O)c1cccc2[nH]ncc12 [I-33]	< 0.01 µM	70 to 90%	< 0.01 µM	> 90%	–
CC[C@H](C)NC[C@H](O)c1cc(F)cc2[nH]ncc12 [I-34]	< 0.01 µM	> 90%	< 0.01 µM	70 to 90%	–
CC[C@H](C)NC[C@H](O)c1cccc2[nH]nc(F)c12 [I-35]	< 0.01 µM	70 to 90%	< 0.01 µM	70 to 90%	–
CC(C)[C@H](C)NC[C@H](O)c1ccc(F)c2[nH]ncc12 [I-36]	< 0.01 µM	70 to 90%	< 0.01 µM	–	> 90%
CCC(CC)NC[C@H](O)c1ccc(F)c2[nH]ncc12 [I-37]	0.01 to 0.1 µM	70 to 90%	< 0.01 µM	–	70 to 90%
CC(C)[C@@H](C)NC[C@H](O)c1cccc2[nH]nc(F)c12 [I-38]	< 0.01 µM	70 to 90%	< 0.01 µM	–	> 90%
CC(C)[C@H](C)NC[C@H](O)c1cccc2[nH]ncc12 [I-40]	0.01 to 0.1 µM	70 to 90%	< 0.01 µM	> 90%	–
CC[C@@H](C)NC[C@H](O)c1cc(F)cc2[nH]ncc12 [I-41]	< 0.01 µM	> 90%	< 0.01 µM	> 90%	–
CCC(CC)NC[C@H](O)c1cccc2[nH]nc(F)c12 [I-42]	0.01 to 0.1 µM	> 90%	< 0.01 µM	–	70 to 90%
CCC(CC)NC[C@H](O)c1cccc2[nH]ncc12 [I-43]	0.01 to 0.1 µM	> 90%	< 0.01 µM	–	> 90%
CCC(CC)NC[C@H](O)c1cc(F)cc2[nH]ncc12 [I-44]	< 0.01 µM	> 90%	< 0.01 µM	–	70 to 90%
